Test results taken from patent US8048898B2, “Inhibitor of binding of S1P1” (Taisho Pharmaceutical Co., Ltd, priority 2007, dated 2011).

Target: T1, human Edg-1(S1P1) (Homo sapiens, UniProt P21453)
T1 construct: expressed in transfected cells; host or cells: HEK-293
Experiment: S1P1 Binding Test ([33P]-S1P, membrane fraction of HEK-293 cell line carrying the human Edg-1(S1P1) gene)
Conditions: compound at 10 μM; [33P]-S1P 0.1 nM; 30° C., 1 hour; read-out: inhibition rate of Edg-1(S1P1) binding
Protocol: The membrane fraction of a HEK-293 cell line carrying the human Edg-1(S1P1) gene was used to study the compounds of the present invention for their inhibitory effect on Edg-1(S1P1) binding, as described in Science. […] To obtain the membrane fraction, treatment with solubilizing buffer (1 mM Tris/HCl, pH 7.2) for 10 minutes on ice was performed, followed by centrifugation at 1000×g for 5 minutes to remove an insoluble fraction and then at 40000×g for 30 minutes at 4° C. The resulting membrane fraction was dissolved in binding buffer (20 mM Tris-HCl, pH 7.4, 100 mM NaCl, 15 mM NaF, 2 mM deoxypyridoxine, 4 mg/mL fatty acid-free BSA), followed by addition of binding buffer containing [^33P]-S1P (ARC, final concentration: 0.1 nM) and DMSO solution of a test compound (final concentration of the compound: 10^−5 M, final concentration of DMSO: 0.1%). After stirring, the reaction solution was incubated at 30° C. for 1 hour. The membrane fraction was collected onto a unifilter-96 GF/C filter (Perkin Elmer) using a harvester and washed four times with binding buffer, followed by drying the filter. After addition of 25 μL Microscint 0 (Perkin Elmer), radioactivity was measured with a Top Count NXT (Packard) to calculate amount (A), i.e., the amount of [^33P]-S1P binding to the membrane fraction in the presence of the compound.
The same procedure was performed in the absence of any test compound to calculate amount (B), i.e., the amount of [^33P]-S1P binding. Moreover, the same procedure was also performed with HEK-293 cells carrying no Edg-1(S1P1) gene in the absence of any test compound to calculate amount (C), i.e., the amount of background [^33P]-S1P binding.
The inhibition rate of Edg-1(S1P1) binding was calculated for each compound by the following equation. Inhibition rate (%)=[1−(A−C)/(B−C)]×100
Moreover, the activity of each test compound was calculated as a value (IC50 value) showing 50% of the radioactivity obtained in the absence of any test compound. Namely, the above membrane system binding test was performed in the presence of a test compound at various concentrations to calculate an IC50 value according to the dose-dependent inhibition curve analyzed with data analysis software, Origin (Lightstone Corp., Japan).

T1 sequence (P21453 whole entry): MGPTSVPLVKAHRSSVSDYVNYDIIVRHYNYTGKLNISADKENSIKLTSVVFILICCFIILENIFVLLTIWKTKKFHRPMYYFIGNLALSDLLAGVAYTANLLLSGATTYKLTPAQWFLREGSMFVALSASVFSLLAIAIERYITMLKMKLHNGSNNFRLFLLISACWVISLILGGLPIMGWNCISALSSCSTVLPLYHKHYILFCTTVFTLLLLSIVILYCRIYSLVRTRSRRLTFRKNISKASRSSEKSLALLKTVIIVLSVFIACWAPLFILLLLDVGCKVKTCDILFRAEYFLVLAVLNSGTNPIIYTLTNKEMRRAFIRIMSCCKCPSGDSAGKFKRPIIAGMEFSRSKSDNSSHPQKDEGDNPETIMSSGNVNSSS

Row | Compound | inhibition at 10 µM
1 | CCc1c(C(C)NS(=O)(=O)c2ccc3c(c2)OCO3)ccnc1Oc1cccc(N2CCOCC2)c1 (stereo not drawn) [Compound 52] | ≥ 3%
2 | CCc1c(C(C)NS(=O)(=O)/C=C/c2ccccc2)ccnc1Oc1cccc(N2CCOCC2)c1 (stereo not drawn) [Compound 53] | ≥ 3%
3 | CCc1c(C(C)NS(=O)(=O)c2ccc3c(c2)CCO3)ccnc1Oc1cccc(N2CCOCC2)c1 (stereo not drawn) [Compound 54] | ≥ 3%
4 | CCc1c(C(C)NS(=O)(=O)c2ccc3c(c2)N=S=N3)ccnc1Oc1cccc(N2CCOCC2)c1 (stereo not drawn) [Compound 55] | ≥ 3%
5 | CCc1c(C(C)NS(=O)(=O)c2ccc(Cl)cc2Cl)ccnc1Oc1cccc(N2CCOCC2)c1 (stereo not drawn) [Compound 56] | ≥ 3%
6 | CCc1c(C(C)NS(=O)(=O)c2ccc3c(Cl)ccc(Cl)c3c2)ccnc1Oc1cccc(N2CCOCC2)c1 (stereo not drawn) [Compound 57] | ≥ 3%
7 | CCc1c(C(C)NS(=O)(=O)c2ccc3c(Cl)cccc3c2)ccnc1Sc1ccc(C)cc1 (stereo not drawn) [Compound 58, 5-Chloronaphthalene-2-sulfonic acid [1-(3-ethyl-2-p-toluylsulfanyl-pyridin-4-yl)-ethyl]-amide] | ≥ 3%
8 | CCc1c(C(C)NS(=O)(=O)c2ccc3c(Cl)cccc3c2)ccnc1S(=O)(=O)c1ccc(C)cc1 (stereo not drawn) [Compound 59, 5-Chloronaphthalene-2-sulfonic acid {1-[3-ethyl-2-(toluene-4-sulfonyl)-pyridin-4-yl]-ethyl}-amide] | ≥ 3%
9 | CCc1c(C(C)N(C)S(=O)(=O)c2ccc3c(Cl)cccc3c2)ccnc1Oc1cccc(N2CCOCC2)c1 (stereo not drawn) [Compound 60, 5-Chloronaphthalene-2-sulfonic acid {1-[3-ethyl-2-(3-morpholin-4-yl-phenoxy)-pyridin-4-yl]-ethyl}-methyl-amide] | ≥ 3%
10 | CCc1c(C(C)NS(=O)(=O)c2ccc3c(Cl)cccc3c2)ccnc1Sc1cccc(N2CCN(C)CC2)c1 (stereo not drawn) [Compound 62] | ≥ 3%

Same assay, conditions: membrane binding test at various concentrations; [33P]-S1P 0.1 nM; read-out: IC50 value, Edg-1(S1P1) binding inhibition

Row | Compound | IC50
11 | CCc1c(C(C)NS(=O)(=O)c2ccc3c(c2)N=S=N3)ccnc1Oc1cccc(N2CCOCC2)c1 (stereo not drawn) [Compound 55] | 126 nM
12 | CCc1c(C(C)NS(=O)(=O)c2ccc3c(Cl)ccc(Cl)c3c2)ccnc1Oc1cccc(N2CCOCC2)c1 (stereo not drawn) [Compound 57] | ≤ 200 nM
